Test results published in US20250282723A1, “AMYLOID TARGETING AGENTS AND METHODS OF USING THE SAME” (The Regents of the University of California, priority 2021, published 2025).

Assays:
[1] = Quantum yield measurements; type: physicochemical; details: 5% DMSO/H2O, reference standard Coumarin 30; for Quantum Yield (Φ): probes of FIG. 14
Protocol: Quantum Yield Measurements. To determine the quantum yield (QY) of compounds ARCAM, 1-5, a procedure that was similar to a previously reported protocol for estimating the QY for Thioflavin T^24 was used. Briefly, the absorbance spectrum of each probe (in 5% Dimethyl Sulfoxide (DMSO)/water (H2O)), in addition to the absorbance spectrum for the reference standard (Coumarin 30, QY=0.67)^27 was measured. The wavelength at which the two normalized absorbance curves intersected was used as the excitation wavelength. A serial dilution of each probe and the standard was made with absorbance values at the excitation wavelength in the range of 0 to 0.1 absorbance units. At each concentration, the emission spectra for each probe and the standard were measured. Technical triplicates of these experiments were performed for all probes, and the averages were recorded. From these emission spectra, the area under the curve was calculated and plotted against the absorbance at each concentration (FIGS. 3-7). The data were fitted to Equation 1 to obtain estimates for QY: […]
where QY represents the quantum yield, A represents the absorbance, E represents the integrated fluorescence emission, η represents the refractive index of the solvent^28,29, and the ‘p’ and ‘r’ subscripts signify the probe or the reference compound, respectively.
Quantum Yield ((D) for each probe was measured as described previously.^31 Briefly, we measured the absorbance spectrum of each probe in 5% DMSO/H2O, as well as the absorbance spectrum for the reference standard (Coumarin 30, =0.67 in Acetonitrile). Both normalized absorbance curves were plotted, and the wavelength of intersection was used as the excitation wavelength. A serial dilution was made for each probe and the standard with absorbance values at the excitation wavelength varying between of 0 to 0.1 absorbance units. At each concentration, the emission spectra for each probe and the standard were measured. Each experiment was repeated in technical triplicates for all probes, and the averages were recorded. The integrated fluorescence emission was calculated and plotted against the absorbance at each concentration. The data were fitted to Equation Si to obtain estimates for Φ: […]
where Φ represents the quantum yield, A represents the absorbance, E represents the integrated fluorescence emission, η represents the refractive index of the solvent, and the ‘p’ and ‘r’ subscripts signify the probe or the reference compound, respectively.

[2] = molecular target: T1, aggregated Aβ (1-42) peptides (Homo sapiens, UniProt P05067); test: Estimation of binding constant (KD) to aggregated Aβ (1-42) peptides; details: aggregated Aβ(1-42) 5 μM, increasing concentration of probe, 5% DMSO in nanopure water
T1 construct: Synthetic Aβ (1-42) peptide was purchased from Biopeptide, Co LLC; purchased Biopeptide, Co LLC (San Diego, California); host or cells: chemical synthesis
Protocol: Preparation of aggregated Aβ (1-42) peptides. Synthetic Aβ (1-42) peptide was purchased from Biopeptide, Co LLC (San Diego, California). Aggregated Aβ (1-42) was prepared as previously described.^26 Briefly, Aβ (1-42) was dissolved in 100% 1,1,1,3,3,3,-hexafluoro-2-propanol (HFIP) to a concentration of 1 mM and put on a shaker at room temperature (RT) for 24 hours. The solution was then diluted in cold nanopure water (2:1 H2O: HFIP). Aliquoted fractions were lyophilized for 3 days before dissolving in nanopure water to a concentration of 100 μM. Aggregated Aβ solutions were incubated and shaken at 37° C. for 3 days before use. The formation of soluble aggregates (67% fibrils as a mixture with 13% oligomers and 20% monomer) was confirmed using a standard thioflavin T (ThT) assay and by Sodium Dodecyl Sulphate-Polyacrylamide Gel Electrophoresis (SDS-PAGE) gel analysis (FIG. 11 and FIG. 12).
Estimation of Binding Constant (KD) to aggregated Aβ (1-42) peptides. Aggregated Aβ(1-42) at a final concentration of 5 μM (based on the molecular weight of monomer) was mixed with increasing concentration of each probe in 5% DMSO in nanopure water. KD's were determined as previously described.^21
Synthetic Aβ (1-42) peptide was purchased from Biopeptide, Co LLC (San Diego, California). Aggregated Aβ (1-42) was prepared as previously described.^32 Briefly, monomeric Aβ (1-42) was dissolved in 100% 1,1,1,3,3,3,-hexafluoro-2-propanol (HFIP) to a final concentration of 1 mM and dissolved on a shaker at RT for 24 hours. This solution was then diluted with cold nanopure water (2:1 H2O:HFIP) and aliquoted into fractions. These samples were then lyophilized for 3 days before dissolving in nanopure water to a final concentration of 100 μM. AD solutions were aggregated by incubating and shaking at 37° C. for 3 days before use. The formation of soluble aggregates was confirmed using a standard Thioflavin T (ThT) assay and by SDS-PAGE gel analysis.^1
Aggregated Aβ(1-42) or αS at a final concentration of 5 μM (based on the molecular weight of the monomer) was mixed with an increasing concentration of each probe in 5% DMSO in nanopure water. Kd's were calculated as previously described.^34 The measurements for each probe were repeated in technical triplicates and the averages are shown with standard deviations. Kd's for probes 1-3 with aggregated Aβ(1-42) have been reported previously.^31

T1 sequence (P05067 672-713): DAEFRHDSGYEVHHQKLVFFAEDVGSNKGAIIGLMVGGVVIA

SMILES | QY [1] | Quantum Yield (Φ) [1] | Kd [2]
CCC1CCCCN1c1ccc2cc(/C=C(\C#N)C(=O)NCCOCCOCCOC)ccc2c1 (racemic) [Compound 5, (E)-2-cyano-3-(6-(2-ethylpiperidin-1-yl)naphthalen-2-yl)-N-(2-(2-(2-methoxyethoxy)ethoxy)ethyl)acrylamide] | 0.0055 ± 0.0010 | 0.0055 | 3.2 ± 0.6 µM
COCCOCCOCCNC(=O)/C(C#N)=C/c1ccc2cc(N3CCCCC3C)ccc2c1 (racemic) [Compound 4, (E)-2-cyano-N-(2-(2-(2-methoxyethoxy)ethoxy)ethyl)-3-(6-(2-methylpiperidin-1-yl)naphthalen-2-yl)acrylamide] | 0.0062 ± 0.0003 | 0.0062 | 4.4 ± 2.3 µM
COCCOCCOCCNC(=O)C(C#N)=Cc1ccc2cc(N3CCCCC3)ccc2c1 (mixture of isomers) [Compound 1] | 0.0066 ± 0.0023 | 0.0066 | 6.3 ± 0.7 µM
